Experiments:
[1] = system: proximal convoluted tubule epithelium of the kidney; assay: Histologic examination of kidney cortex tissue of Gentamicin-treated rats; type: in vivo, rat
Experimental: (§1) Gentamicin, a known kidney toxin, was used to treat rats at a range of doses known to produce varying degrees of bistopathologically evident kidney response. […] The rat groups included 10 male rats per treated group, and 20 male rats in the untreated (control) group. Blood samples from rats treated at 40 mg/kg/day after 8 days were taken for proteome analysis, and kidney cortex tissue samples from rats treated at 0.1, 1.0, 10, and 40 mg/kg/day after 8 and 22 days for each group were taken for proteome analysis. Kidney cortex tissue samples were also prepared for histologic examination according to standard tissue preparation protocols.
(§2) At 60 mg/kg/day there were changes in urine biochemistry parameters (raised NAG (N-acetyl-beta-D-glucosaminidase), GGT (gamma-glutamyl-transpeptidase) and urine volume, depressed specific gravity), consistent with kidney damage.

rats = assay: Urine biochemistry parameters in Gentamicin-treated rats; type: in vivo, rat; conditions: 60 mg/kg/day
Experimental: as §1, §2

In the case of Gentamicin, the “histologic examination of kidney” value ([1]; 60 mg/kg) is reported as “single cell necrosis and loss of brush border of the proximal convoluted tubule epithelium of the kidney”, the “histologic finding after withdrawal of treatment” value ([1]; seven days after the withdrawal of treatment) is reported as “evidence of cortical tubular regeneration” and the “urine GGT (gamma-glutamyl-transpeptidase)” value (rats) is reported as “raised”. The “urine NAG (N-acetyl-beta-D-glucosaminidase)” value (rats) was “raised” and the urine specific gravity (rats) was “depressed”.

From US20040053309A1, “Proteins, genes and their use for diagnosis and treatment of kidney response” (priority 2000, published 2004)
